US12396964B2 (Shinkei Therapeutics, Inc., priority 2021, dated 2025)
Where a name gives a salt, the structure may show the parent alone.

Assays:
[1] = Applicants' finding on safety of the intravenous dose, volume and rate of administration
Protocol: As discussed above, the volume of fluid is not only critical in terms of increase in ICP, but it is also critical in terms of defining the time of administration of the dose, and therefore, the rate of administration of the dose. […] Each dose is administered over a period of 180 minutes, i.e. at a rate of about 1.39 ml/min.

[2] = Safety and tolerability study of amantadine hydrochloride IV solution 200 mg with plasma sampling in healthy adult subjects (Example 2); type: in vivo, human; conditions: 200 mg IV
Protocol: 4 mL venous blood was collected before dosing (0 hour) and at the following nominal times after dosing: 0.5, 1, 2, 3, 4, 5, 5.5, 6, 7, 9, 12, 16, 24, 36, 48 and 72 hours post-dose. Safety was assessed by qualified study staff by evaluating the following: reported adverse events, clinical laboratory test results, vital sign measurements, ECG findings, physical examination findings at screening and clinic exit (including body weight and height measurements), and concomitant medication usage. The blood samples collected were used to assess the decrease in concentration of amantadine in the plasma over time, and is tabulated in Table 3 below.

[3] = clinical; conditions: human, in vivo
Protocol: The subjects received the test treatments as described in Table 1 below, under direct observation following an overnight fast of at least 10 hours.
Plasma concentrations of amantadine increased rapidly and reached maximum plasma concentrations at around 3 hours after start of the IV infusion.
The plasma amantadine concentrations from healthy adults enrolled in the open-label, multiple-cohort, single-period non-randomized single-ascending dose study of Example 1 were used to determine the decrease in concentration of amantadine over time, after the administration of the first dose of 100 mg and 150 mg in different cohorts. The data is supportive in determining the timing of the second dose of amantadine.

NC12CC3CC(CC(C3)C1)C2 [amantadine hydrochloride]
safety of the dose ([1]; about 100 mg to about 200 mg in a volume of 250 ml as a single dose, over 180 minutes, twice a day): safe | safety of the rate of administration ([1]; rate ranging between 0.5 mg/min to about 1.2 mg/min): safe | % decrease in plasma amantadine concentration ([2]; 0 hr after first dose): 0.0% | % decrease in plasma amantadine concentration ([2]; 1 hr after first dose): 14.0% | % decrease in plasma amantadine concentration ([2]; 2 hr after first dose): 20.9% | % decrease in plasma amantadine concentration ([2]; 2.5 hr after first dose): 24.5% | % decrease in plasma amantadine concentration ([2]; 3 hr after first dose): 26.2% | % decrease in plasma amantadine concentration ([2]; 4 hr after first dose): 30.0% | % decrease in plasma amantadine concentration ([2]; 6 hr after first dose): 34.5% | % decrease in plasma amantadine concentration ([2]; 9 hr after first dose): 48.3% | half-life ([3]; both sexes, iv, T1/2): 11.4 h | Tmax ([3]; both sexes, iv, Tmax): 3 h | half-life ([3]; both sexes, iv, half-life (T½)): 11 to 15 h | Tmax ([3]; both sexes, iv, maximum plasma concentration (Tmax)): 3 to 4 h | half-life ([3]; both sexes, iv, mean elimination half-life): 11.5 to 14.5 h | increase of AUC0-28, more than proportional to the dose ([3]; both): ~3 fold | increase of Cmax, more than proportional to the dose ([3]; both): ~2.3 fold | Tmax ([3]; both, iv): 3.25 h | plasma levels remained detectable post-dose ([3]; both, iv, 3 h): 48 to 72 h
